Test results from paper PMC7168207, “Dibasic Derivatives of Phenylcarbamic Acid as Prospective Antibacterial Agents Interacting with Cytoplasmic Membrane” (Antibiotics, 2020).
Several values for one entry are separate records, joined by “and”; a condition that tells them apart may be missing. Equal values may be shown once. Marks after values point to notes of the source that are not given here.

Assays:
VRE 725B [1] = assay: time-kill study; type: cell-based, Enterococcus faecalis; settings: VRE3
Description: (§1) Time-kill studies are used to evaluate the dynamics of antibacterial activity. As mentioned above, a pre-test to determine minimum bactericidal concentration (MBC) by sub-cultivation of aliquots on agar was made (see Section 3.4). […] Time-kill studies were made with methicillin-susceptible S. aureus ATCC 29213 and methicillin-resistant MRSA 63718, vancomycin-susceptible E. faecalis ATCC 29212, and all three VRE isolates. Vancomycin was used as a control (Table 6).
(§2) The method of time-kill curves was used to study the bactericidal effect of selected compounds. […] The experiment was performed with S. aureus ATCC 29213, MRSA 63718, E. faecalis ATCC 29212, and all VRE isolates. […] The tubes were inoculated by bacterial inoculum in the exponential phase of growth to get a final concentration of 7.5 × 10^6 CFU/mL. The tubes were incubated statically at 37 °C. Immediately after inoculation and after 4, 6, 8, and 24 h, 100 µL of the sample was serially diluted (1:10) in PBS. Then, 2 × 20 µL from each dilution were put onto a Mueller–Hinton agar plate and cultivated at 37 °C for 24 h. After incubation, CFUs of dilutions containing 5–50 colonies were counted. Results were expressed as a decrease of log10(CFU) in each time compared to the starting inoculum. Bactericidal effect is defined as a −3log decrease of CFU/mL compared to the growth control in time 0. The test was made in duplicate on two separate occasions, and the results were averaged. The growth curves with error bars are shown in Figures S1 and S2 in Supplementary Materials.

E. faecalis ATCC 29212 = assay: time-kill study; type: cell-based, Enterococcus faecalis; settings: EF
Description: as §1, §2

VRE 342B [2] = assay: time-kill study; type: cell-based, Enterococcus faecalis; settings: VRE1
Description: as §1, §2

VRE 368 [3] = assay: time-kill study; type: cell-based, Enterococcus faecalis; settings: VRE2
Description: as §1, §2

MRSA 63718 = assay: synergy with antibiotics (FIC index, checkerboard); type: cell-based, Staphylococcus aureus; settings: in the combination of that line
Description: (§3) Representatives from various classes were chosen in order to study the potential difference in synergistic activity according to the diverse mechanisms of action and resistance of these drugs. The method of minimal fractional inhibitory concentration (FIC) index (FICI) in a microtitration plate was used. FICI ≤ 0.5 means synergy; 0.5 < FICI < 1 means additivity; 1 ≤ FICI < 4 means indifference; and FICI ≥ 4 means antagonism.
(§4) For synergy effect study, a method of fractional inhibitory concentration was used. […] Raw H was used for the evaluation of MIC(A); column 12 was used for evaluation of MIC(B). The plate was inoculated by the bacterial suspension to reach final concentration of 5 × 10^5 CFU/mL in the wells. The fractional inhibitory concentration (FIC) index was calculated using the concentrations in the first nonturbid (clear) well found in each row and column along the turbidity/nonturbidity interface. To interpret the combined effect, the lowest FICI was used. A ΣFIC ≤ 0.5 means synergy; 0.5 < ΣFIC < 1 means additivity; 1 ≤ ΣFIC < 4 means indifference; and ΣFIC ≥ 4 means antagonism. The tests were made in duplicate, and the results were averaged.

[4] = system: Candida albicans CCM 8261; assay: minimum fungistatic concentration, RPMI 1640; type: cell-based; settings: CCM8261, CA = C albicans CCM 8261, 48 h
In short: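 Broth microdilution in RPMI 1640 with a final inoculum of 10^3 CFU/mL, incubated 48 h at 37 °C. The endpoint was the lowest concentration giving visually complete (100%) growth inhibition.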

VRE 725B [5] = assay: synergy with antibiotics (FIC index, checkerboard); type: cell-based, Enterococcus faecalis; settings: combination with VAN, data not shown
Description: as §3
The used VRE strains were isolated from American crows by Oravcova et al., and their genetic profiles were characterized. All the VRE strains were carrying genes vanA, tetM, and ermB. Strains VRE 368 and VRE 725B carried gene aac, which provided acquired aminoglycoside resistance.
as §4

VRE 342B [6] = assay: synergy with antibiotics (FIC index, checkerboard); type: cell-based, Enterococcus faecalis; settings: VRE 342B
VRE 368 [7] = assay: synergy with antibiotics (FIC index, checkerboard); type: cell-based, Enterococcus faecalis; settings: VRE 368
[8] = in the combination of that line

## CCCCCCOc1cccc(NC(=O)OC(CN(CCC)CCC)CN2CCCC2)c1.Cl.Cl (stereo not shown) [1g, 1-[3-(dipropylammonio)-2-({[3-(hexyloxy)phenyl]carbamoyl}oxy)propyl]pyrrolidinium dichloride]
VRE 725B [1]; 1 × MIC, 4 h
  Log10 Difference in CFU/mL from Inoculum: −0.09 log10 CFU/mL
VRE 725B [1]; 1 × MIC, 6 h
  Log10 Difference in CFU/mL from Inoculum: −0.29 log10 CFU/mL
VRE 725B [1]; 1 × MIC, 8 h
  Log10 Difference in CFU/mL from Inoculum: 0.19 log10 CFU/mL
VRE 725B [1]; 1 × MIC, 24 h
  Log10 Difference in CFU/mL from Inoculum: 2.41 log10 CFU/mL
VRE 725B [1]; 2 × MIC, 4 h
  Log10 Difference in CFU/mL from Inoculum: −0.75 log10 CFU/mL
VRE 725B [1]; 2 × MIC, 6 h
  Log10 Difference in CFU/mL from Inoculum: −0.74 log10 CFU/mL
VRE 725B [1]; 2 × MIC, 8 h
  Log10 Difference in CFU/mL from Inoculum: 0.56 log10 CFU/mL
VRE 725B [1]; 2 × MIC, 24 h
  Log10 Difference in CFU/mL from Inoculum: 0.43 log10 CFU/mL
VRE 725B [1]; 4 × MIC, 4 h
  Log10 Difference in CFU/mL from Inoculum: −1.85 log10 CFU/mL
VRE 725B [1]; 4 × MIC, 6 h
  Log10 Difference in CFU/mL from Inoculum: −1.85 log10 CFU/mL
VRE 725B [1]; 4 × MIC, 8 h
  Log10 Difference in CFU/mL from Inoculum: −2.15 log10 CFU/mL
VRE 725B [1]; 4 × MIC, 24 h
  Log10 Difference in CFU/mL from Inoculum: −2.27 log10 CFU/mL
E. faecalis ATCC 29212; 1 × MIC, 4 h
  Log10 Difference in CFU/mL from Inoculum: −1.63 log10 CFU/mL
E. faecalis ATCC 29212; 1 × MIC, 6 h
  Log10 Difference in CFU/mL from Inoculum: −1.01 log10 CFU/mL
E. faecalis ATCC 29212; 1 × MIC, 8 h
  Log10 Difference in CFU/mL from Inoculum: −0.61 log10 CFU/mL
E. faecalis ATCC 29212; 1 × MIC, 24 h
  Log10 Difference in CFU/mL from Inoculum: 0.27 log10 CFU/mL
E. faecalis ATCC 29212; 2 × MIC, 4 h
  Log10 Difference in CFU/mL from Inoculum: −3.37 * log10 CFU/mL
E. faecalis ATCC 29212; 2 × MIC, 6 h
  Log10 Difference in CFU/mL from Inoculum: −3.43 * log10 CFU/mL
E. faecalis ATCC 29212; 2 × MIC, 8 h
  Log10 Difference in CFU/mL from Inoculum: −2.68 log10 CFU/mL
E. faecalis ATCC 29212; 2 × MIC, 24 h
  Log10 Difference in CFU/mL from Inoculum: 1.04 log10 CFU/mL
E. faecalis ATCC 29212; 4 × MIC, 4 h
  Log10 Difference in CFU/mL from Inoculum: −5.62 * log10 CFU/mL
E. faecalis ATCC 29212; 4 × MIC, 6 h
  Log10 Difference in CFU/mL from Inoculum: −5.14 * log10 CFU/mL
E. faecalis ATCC 29212; 4 × MIC, 8 h
  Log10 Difference in CFU/mL from Inoculum: −5.92 * log10 CFU/mL
E. faecalis ATCC 29212; 4 × MIC, 24 h
  Log10 Difference in CFU/mL from Inoculum: −0.31 log10 CFU/mL
VRE 342B [2]; 1 × MIC, 4 h
  Log10 Difference in CFU/mL from Inoculum: −0.14 log10 CFU/mL
VRE 342B [2]; 1 × MIC, 6 h
  Log10 Difference in CFU/mL from Inoculum: 0.97 log10 CFU/mL
VRE 342B [2]; 1 × MIC, 8 h
  Log10 Difference in CFU/mL from Inoculum: 1.01 log10 CFU/mL
VRE 342B [2]; 1 × MIC, 24 h
  Log10 Difference in CFU/mL from Inoculum: 1.11 log10 CFU/mL
VRE 342B [2]; 2 × MIC, 4 h
  Log10 Difference in CFU/mL from Inoculum: −0.36 log10 CFU/mL
VRE 342B [2]; 2 × MIC, 6 h
  Log10 Difference in CFU/mL from Inoculum: −1.89 log10 CFU/mL
VRE 342B [2]; 2 × MIC, 8 h
  Log10 Difference in CFU/mL from Inoculum: −0.64 log10 CFU/mL
VRE 342B [2]; 2 × MIC, 24 h
  Log10 Difference in CFU/mL from Inoculum: 1.51 log10 CFU/mL
VRE 342B [2]; 4 × MIC, 4 h
  Log10 Difference in CFU/mL from Inoculum: −0.92 log10 CFU/mL
VRE 342B [2]; 4 × MIC, 6 h
  Log10 Difference in CFU/mL from Inoculum: −1.00 log10 CFU/mL
VRE 342B [2]; 4 × MIC, 8 h
  Log10 Difference in CFU/mL from Inoculum: −1.09 log10 CFU/mL
VRE 342B [2]; 4 × MIC, 24 h
  Log10 Difference in CFU/mL from Inoculum: 0.77 log10 CFU/mL
VRE 368 [3]; 1 × MIC, 4 h
  Log10 Difference in CFU/mL from Inoculum: −2.00 log10 CFU/mL
VRE 368 [3]; 1 × MIC, 6 h
  Log10 Difference in CFU/mL from Inoculum: 0.29 log10 CFU/mL
VRE 368 [3]; 1 × MIC, 8 h
  Log10 Difference in CFU/mL from Inoculum: 0.25 log10 CFU/mL
VRE 368 [3]; 1 × MIC, 24 h
  Log10 Difference in CFU/mL from Inoculum: −0.16 log10 CFU/mL
VRE 368 [3]; 2 × MIC, 4 h
  Log10 Difference in CFU/mL from Inoculum: −2.34 log10 CFU/mL
VRE 368 [3]; 2 × MIC, 6 h
  Log10 Difference in CFU/mL from Inoculum: −1.97 log10 CFU/mL
VRE 368 [3]; 2 × MIC, 8 h
  Log10 Difference in CFU/mL from Inoculum: −1.01 log10 CFU/mL
VRE 368 [3]; 2 × MIC, 24 h
  Log10 Difference in CFU/mL from Inoculum: 0.32 log10 CFU/mL
VRE 368 [3]; 4 × MIC, 4 h
  Log10 Difference in CFU/mL from Inoculum: −2.72 * log10 CFU/mL
VRE 368 [3]; 4 × MIC, 6 h
  Log10 Difference in CFU/mL from Inoculum: −2.71 * log10 CFU/mL
VRE 368 [3]; 4 × MIC, 8 h
  Log10 Difference in CFU/mL from Inoculum: −2.45 log10 CFU/mL
VRE 368 [3]; 4 × MIC, 24 h
  Log10 Difference in CFU/mL from Inoculum: 0.97 log10 CFU/mL
MRSA 63718
  concentrations of the tested compound/clinically used antibiotic providing additivity or synergy: 2 µg/mL
[4]
  MIC: 16 µg/mL and 30.8 µM
VRE 725B [5]
  effect of the combination with VAN: indifferent effect
VRE 342B [6]; Enterococcus, tested compound/antibiotic, read-out: MIC of each antibacterial drug alone observed in the synergy experiment
  MIC: 8 µg/mL
VRE 342B [6]; [8]
  concentrations of the tested compound/clinically used antibiotic providing additivity or synergy: 4 µg/mL
VRE 368 [7]; Enterococcus, VRE, tested compound/antibiotic, read-out: MIC of each antibacterial drug alone observed in the synergy experiment
  MIC: 8 µg/mL
VRE 368 [7]; [8]
  concentrations of the tested compound/clinically used antibiotic providing additivity or synergy: 4 µg/mL
